{"source": "patent US20220220075A1", "about": "“SOLID FORM OF AROMATIC COMPOUND AND PREPARATION METHOD THEREFOR” (Sichuan Kelun-Biotech Biopharmaceutical Co., Ltd., priority 2019, published 2022)", "key": {"[1]": {"experiment": "Study on pharmacokinetics (PK) in rats", "type": "in vivo, male SD rats", "conditions": "PO, 5 mg/kg", "protocol": "A sample of crystalline form A was administered to male SD rats by intragastric route (PO) to investigate its pharmacokinetic characteristics. The dose was 5 mg/kg, and 0.5% MC (methylcellulose sodium) was used as a solvent to prepare a suspension of crystalline form A. In the administration group, whole blood samples were collected before PO administration (0 h) and at time points of 0.083, 0.17, 0.25, 0.5, 1, 2, 4, 6, 8 and 24 hours after administration. The whole blood samples were anticoagulated with EDTA.K2, and plasma samples were obtained after centrifugation and stored at −80° C. for later testing. In this experiment, there were three animals in each group for parallel testing.\nThe plasma samples were treated by precipitating protein and then analyzed by LC-MS/MS. Using WinNonlin 6.3 software, the pharmacokinetic parameters was calculated by means of the non-compartmental model, and the results were shown in Table 1."}, "[2]": {"experiment": "High temperature stability test (purity by HPLC, XRPD)", "type": "physicochemical", "conditions": "60° C.; for Purity: sealed glass bottle", "protocol": "(§1) In this experimental example, the chemical stability of crystalline form A was studied by high temperature and high humidity test.\n(§2) Method for testing purity: high performance liquid chromatography (Chinese Pharmacopoeia, 2015 Edition, Four General Rules 0512) was used to test purify.\n(§3) Chromatographic column: phenyl bonded silica gel was used as filler;\n(§4) Mobile phase A: 5 mM ammonium acetate (pH 4.0);\n(§5) Mobile phase B: Acetonitrile (containing 0.05% acetic acid);\n(§6) Detection wavelength: 230 nm.\n(§7) Elution condition: gradient elution.\nThe crystalline form A was placed in a sealed and clean glass bottle, and then the glass bottle was placed in a 60° C. constant temperature drying oven, and samples were taken on the […] and the 30th day, respectively, to detect impurity contents, and the purity results were shown in Table 2."}, "[3]": {"experiment": "High humidity stability test (purity by HPLC, XRPD)", "type": "physicochemical", "conditions": "25±2° C., 92.5% RH; for Purity: open dish", "protocol": "as §1, §2, §3, §4, §5, §6, §7\nThe crystalline form A of the compound of Formula I was evenly spread into an open culture dish with a thickness of ≤5 mm, and placed in a constant temperature incubator at room temperature (25±2° C.) and relative humidity of 92.5% RH. […]"}, "PPAR δ": {"target": "T1, PPAR δ (Homo sapiens, UniProt Q03181)", "T1 sequence (Q03181 1-441)": "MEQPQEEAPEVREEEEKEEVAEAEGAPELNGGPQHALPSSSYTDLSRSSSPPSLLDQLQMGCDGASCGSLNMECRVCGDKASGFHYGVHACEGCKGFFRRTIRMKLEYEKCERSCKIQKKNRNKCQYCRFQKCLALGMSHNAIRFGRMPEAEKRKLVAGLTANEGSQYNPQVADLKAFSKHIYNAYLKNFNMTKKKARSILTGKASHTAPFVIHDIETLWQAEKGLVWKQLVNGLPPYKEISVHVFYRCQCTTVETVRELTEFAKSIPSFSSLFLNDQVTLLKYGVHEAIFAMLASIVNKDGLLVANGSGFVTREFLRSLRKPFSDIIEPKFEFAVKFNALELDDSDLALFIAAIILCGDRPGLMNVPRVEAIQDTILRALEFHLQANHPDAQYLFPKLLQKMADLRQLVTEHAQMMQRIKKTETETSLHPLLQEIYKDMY", "conditions": "statement in words; tests disclosed in WO2019105234A1; cited from earlier work"}, "HepG2 cells": {"system": "HepG2 cells", "conditions": "statement in words; tests disclosed in WO2019105234A1; cited from earlier work"}, "HEK293 cells": {"system": "HEK293 cells", "conditions": "statement in words; tests disclosed in WO2019105234A1; cited from earlier work"}, "hERG": {"target": "hERG (Homo sapiens, UniProt Q12809)", "sequence (Q12809 whole entry)": "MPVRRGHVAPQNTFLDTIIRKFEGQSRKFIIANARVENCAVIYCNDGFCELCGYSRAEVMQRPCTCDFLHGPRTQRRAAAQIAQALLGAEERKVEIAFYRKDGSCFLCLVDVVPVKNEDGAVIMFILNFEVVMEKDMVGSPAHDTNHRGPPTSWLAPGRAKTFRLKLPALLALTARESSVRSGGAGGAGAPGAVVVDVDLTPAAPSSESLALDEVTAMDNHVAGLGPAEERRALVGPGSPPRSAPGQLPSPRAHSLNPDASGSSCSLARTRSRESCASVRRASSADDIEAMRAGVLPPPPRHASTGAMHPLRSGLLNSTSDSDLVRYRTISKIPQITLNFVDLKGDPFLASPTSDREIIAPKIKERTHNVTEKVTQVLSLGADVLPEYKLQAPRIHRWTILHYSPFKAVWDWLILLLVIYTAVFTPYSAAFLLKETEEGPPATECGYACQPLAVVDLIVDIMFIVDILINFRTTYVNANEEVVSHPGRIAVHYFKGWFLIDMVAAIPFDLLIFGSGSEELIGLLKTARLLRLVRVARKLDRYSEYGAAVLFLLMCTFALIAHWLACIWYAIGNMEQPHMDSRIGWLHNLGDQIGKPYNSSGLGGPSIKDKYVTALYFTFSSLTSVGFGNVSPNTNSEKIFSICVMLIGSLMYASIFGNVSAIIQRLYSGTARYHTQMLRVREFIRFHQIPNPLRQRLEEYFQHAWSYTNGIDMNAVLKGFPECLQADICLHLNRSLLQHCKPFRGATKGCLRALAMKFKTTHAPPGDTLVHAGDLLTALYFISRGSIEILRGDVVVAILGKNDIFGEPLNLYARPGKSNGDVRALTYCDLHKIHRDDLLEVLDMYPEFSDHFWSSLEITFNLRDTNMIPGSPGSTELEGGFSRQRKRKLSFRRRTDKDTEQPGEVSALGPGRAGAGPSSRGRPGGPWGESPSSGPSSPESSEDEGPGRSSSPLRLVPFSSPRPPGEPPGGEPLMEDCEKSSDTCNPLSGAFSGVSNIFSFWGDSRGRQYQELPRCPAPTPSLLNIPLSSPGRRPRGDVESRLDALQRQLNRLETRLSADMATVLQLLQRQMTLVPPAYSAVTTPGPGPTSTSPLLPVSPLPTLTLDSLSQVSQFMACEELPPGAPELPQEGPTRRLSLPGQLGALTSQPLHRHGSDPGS", "conditions": "statement in words; tests disclosed in WO2019105234A1; cited from earlier work"}, "[4]": {"conditions": "rat, male SD rats, suspension in 0.5% MC, plasma"}}}
{"smiles": "COc1nc2ccccc2cc1C(=O)/C=C/c1cc(C)c(OC(C)(C)C(=O)O)c(C)c1", "note": "[crystalline form A, (E)-2-(4-(3-(2-methoxyquinolin-3-yl)-3-oxo-1-propen-1-yl)-2,6-dimethylphenoxy)-2-methyl-propionic acid]", "values": [{"measurement": "exposure in rat plasma", "setting": "[1]", "result": "better exposure"}, {"measurement": "AUC(0-t)", "setting": "[1]; [4]", "result": 777, "unit": "ng·h/mL"}, {"measurement": "Cmax", "setting": "[1]; [4]", "result": 522, "unit": "ng/mL"}, {"measurement": "change of crystalline form by XRPD", "setting": "[2]; after 30 days of storage", "result": "did not change"}, {"measurement": "Purity", "setting": "[2]; 0th day", "result": 99.51, "unit": "%"}, {"measurement": "Purity", "setting": "[2]; 10th day", "result": 99.53, "unit": "%"}, {"measurement": "Purity", "setting": "[2]; 30th day", "result": 99.54, "unit": "%"}, {"measurement": "change of purity under high temperature conditions", "setting": "[2]; up to 30 days", "result": "no significant change"}, {"measurement": "change of crystalline form by XRPD", "setting": "[3]; after 30 days of storage", "result": "did not change"}, {"measurement": "Purity", "setting": "[3]; 0th day", "result": 99.51, "unit": "%"}, {"measurement": "Purity", "setting": "[3]; 10th day", "result": 99.53, "unit": "%"}, {"measurement": "Purity", "setting": "[3]; 30th day", "result": 99.54, "unit": "%"}, {"measurement": "change of purity under high humidity conditions", "setting": "[3]; up to 30 days", "result": "no significant change"}, {"measurement": "agonistic effect on PPAR δ", "setting": "PPAR δ", "result": "obvious agonistic effect"}, {"measurement": "toxicity to HepG2 cells", "setting": "HepG2 cells", "result": "low toxicity"}, {"measurement": "toxicity to HEK293 cells", "setting": "HEK293 cells", "result": "low toxicity"}, {"measurement": "inhibitory effect on hERG", "setting": "hERG", "result": "no obvious inhibitory effect"}]}
